Key:
Prp43:Pxr1^GM = target: T1, Prp43:Pxr1^GM (Saccharomyces cerevisiae, UniProt P53131); assay: pyruvate kinase/lactate dehydrogenase coupled NADH assay, initial rate; format: biochemical; details: 2.5 mM ATP, no RNA; 20 mM MgCl2, 50 mM Hepes pH 7.5, 200 mM KCl, room temperature
T1 construct: full-length Prp43 with G-patch plus middle domain of Pxr1 (137 residues), co-expressed in E. coli; resolved Prp43 52-718 and Pxr1 122-136; with Protein PXR1

Prp43:Tma23^M = target: T2, Prp43:Tma23^M (Saccharomyces cerevisiae, UniProt P53131); assay: pyruvate kinase/lactate dehydrogenase coupled NADH assay, Michaelis-Menten fit; format: biochemical; details: no RNA; 20 mM MgCl2, 50 mM Hepes pH 7.5, 200 mM KCl, room temperature, ATP up to 2.5 mM
T2 construct: 1:1 complex of Prp43 with the middle (I-patch containing) domain of Tma23, co-expressed in E. coli; with Protein TMA23
T2 sequence (P53131 whole entry): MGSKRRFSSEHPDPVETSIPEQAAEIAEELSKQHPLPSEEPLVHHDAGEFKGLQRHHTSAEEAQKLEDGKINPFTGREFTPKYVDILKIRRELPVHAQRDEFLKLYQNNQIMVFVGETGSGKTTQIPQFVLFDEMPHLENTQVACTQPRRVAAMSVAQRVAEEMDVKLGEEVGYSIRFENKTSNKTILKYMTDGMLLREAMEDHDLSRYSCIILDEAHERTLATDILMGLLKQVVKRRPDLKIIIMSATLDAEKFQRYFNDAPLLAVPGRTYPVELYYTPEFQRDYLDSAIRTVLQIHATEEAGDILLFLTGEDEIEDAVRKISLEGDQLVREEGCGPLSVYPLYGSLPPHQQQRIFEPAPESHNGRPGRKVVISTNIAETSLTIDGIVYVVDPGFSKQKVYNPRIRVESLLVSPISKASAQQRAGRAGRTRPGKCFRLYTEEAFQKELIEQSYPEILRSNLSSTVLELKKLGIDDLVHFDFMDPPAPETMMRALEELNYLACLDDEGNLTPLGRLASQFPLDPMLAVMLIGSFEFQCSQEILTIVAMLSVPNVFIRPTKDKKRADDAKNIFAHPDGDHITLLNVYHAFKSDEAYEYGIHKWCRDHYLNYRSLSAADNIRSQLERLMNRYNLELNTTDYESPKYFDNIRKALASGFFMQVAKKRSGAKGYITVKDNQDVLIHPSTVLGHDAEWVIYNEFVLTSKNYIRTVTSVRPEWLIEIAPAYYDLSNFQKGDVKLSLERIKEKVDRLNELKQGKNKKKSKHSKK
T2 sequence (Q03525 whole entry partner): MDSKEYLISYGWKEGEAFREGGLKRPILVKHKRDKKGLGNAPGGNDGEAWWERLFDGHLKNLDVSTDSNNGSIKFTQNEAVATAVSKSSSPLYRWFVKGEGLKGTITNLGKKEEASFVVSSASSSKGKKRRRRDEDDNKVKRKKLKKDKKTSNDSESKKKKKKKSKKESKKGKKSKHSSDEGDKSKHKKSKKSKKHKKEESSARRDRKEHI
Source text: pyruvate kinase/lactate dehydrogenase coupled NADH assay, Michaelis-Menten fit on Prp43:Tma23^M | We obtained kinetic parameters for the ATPase activities of Prp43, Prp43:Tma23^M and Ppr43:Pxr1^M complexes

T1 sequence (P53131 whole entry, the tested form may be a part): as the sequence (P53131 whole entry) above
T1 sequence (P53335 1-137 partner): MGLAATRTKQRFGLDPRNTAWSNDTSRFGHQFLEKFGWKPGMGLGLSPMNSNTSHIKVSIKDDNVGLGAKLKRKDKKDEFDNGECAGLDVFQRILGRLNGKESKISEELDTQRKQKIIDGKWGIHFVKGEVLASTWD

In the case of `Nc1ncnc2c1ncn2[C@@H]1O[C@H](COP(=O)(O)OP(=O)(O)OP(=O)(O)O)[C@@H](O)[C@H]1O` [ATP], the “pyruvate kinase/lactate dehydrogenase coupled NADH assay, initial rate” value (Prp43:Pxr1^GM) is reported as “Pxr1^GM, Pxr1^GM-L33E, and Pxr1^M were co-expressed with Prp43” and the Km (Prp43:Tma23^M) is reported as 34 ± 4.56 µM.

Source: publication PMC11584650, “An inhibitory segment within G-patch activators tunes Prp43-ATPase activity during ribosome assembly” (Nature Communications, 2024)
